In publication PMC4450297, “Screening Active Compounds from Garcinia Species Native to China Reveals Novel Compounds Targeting the STAT/JAK Signaling Pathway” (BioMed Research International, 2015):

Tests used:
Experiment in all cases: Cell panel screen (CellTiter-Glo)
Type in all cases: cell-based, human
[1] = system: NCI-H1623; conditions: NCI-H1623 (Lung), 20 micromolar, 72 hrs
Method: (§1) All cells were obtained from the cell bank of the American Type Culture Collection (ATCC) and cultured in the supplier's recommended media supplemented with 10% FBS. The cell panel screen was measured using the CellTiter-Glo assay (Promega, Madison, WI) following a standard protocol. Briefly, cancer cells were seeded in 96-well plates and cultured overnight at 37°C with or without 5% CO2 in an incubator. Each compound was dissolved with limited DMSO and diluted to a certain concentration with culture medium and then added to the corresponding well of the cell plate. The final concentration of compound was 20 μM. The control cells (without treatment) received the same amount of DMSO and were incubated under the same conditions. After 72 h cultivation, 100 μL of the CellTiter-Glo reagent was added directly to each well for 10-minute incubation. The plate was then read on a FlexStation 3 microplate luminometer (Molecular Devices, USA) to monitor the luminescence signal generated by the luciferase-catalyzed reaction of luciferin and ATP. The percent of growth inhibition was calculated using the following formula: (untreated cells − treated cells)/(untreated cells − background without cells) ∗ 100.

[2] = system: CCF-STTG1; conditions: CCF-STTG1 (Brain), 20 micromolar, 72 hrs
Method: as §1

[3] = system: Panc 03.27; conditions: Panc 03.27 (Pancreas), 20 micromolar, 72 hrs
Method: as §1

[4] = system: M059J; conditions: M059J (Brain), 20 micromolar, 72 hrs
Method: as §1

[5] = system: NCI-H2405; conditions: NCI-H2405 (Lung), 20 micromolar, 72 hrs
Method: as §1

[6] = system: RL95; conditions: RL95 (Uterus), 20 micromolar, 72 hrs
Method: as §1

[7] = system: HCC1569; conditions: HCC1569 (Breast), 20 micromolar, 72 hrs
Method: as §1

[8] = system: Colo 205; conditions: Colo 205, 20 micromolar, 72 hrs
Method: as §1

[9] = system: MSTO-211-H; conditions: MSTO-211-H (Lung), 20 micromolar, 72 hrs
Method: as §1

[10] = system: NCI-H28; conditions: NCI-H28 (Lung), 20 micromolar, 72 hrs
Method: as §1

[11] = system: NCI-H1694; conditions: NCI-H1694 (Lung), 20 micromolar, 72 hrs
Method: as §1

[12] = system: TCCSUP; conditions: TCCSUP (Urinary bladder), 20 micromolar, 72 hrs
Method: as §1

[13] = system: T47D; conditions: T47D (Breast), 20 micromolar, 72 hrs
Method: as §1

[14] = system: HPAF-II; conditions: HPAF-II (Pancreas), 20 micromolar, 72 hrs
Method: as §1

[15] = system: A704; conditions: A704 (Kidney), 20 micromolar, 72 hrs
Method: as §1

[16] = system: SW13; conditions: SW13 (Adrenal gland), 20 micromolar, 72 hrs
Method: as §1

[17] = system: HGC-27; conditions: HGC-27 (Stomach), 20 micromolar, 72 hrs
Method: as §1

[18] = system: BT-474; conditions: BT-474 (Breast), 20 micromolar, 72 hrs
Method: as §1

[19] = system: A498; conditions: A498 (listed under Lung), 20 micromolar, 72 hrs
Method: as §1

[20] = system: CW-2; conditions: CW-2 (Colon), 20 micromolar, 72 hrs
Method: as §1

[21] = system: HEC-1-A; conditions: HEC-1-A (Uterus), 20 micromolar, 72 hrs
Method: as §1

[22] = system: ChaGo-K-1; conditions: ChaGo-K-1 (Lung), 20 micromolar, 72 hrs
Method: as §1

[23] = system: NCI-H524; conditions: NCI-H524 (Lung), 20 micromolar, 72 hrs
Method: as §1

[24] = system: NCI-H2347; conditions: NCI-H2347 (Lung), 20 micromolar, 72 hrs
Method: as §1

[25] = system: J82; conditions: J82 (Urinary bladder), 20 micromolar, 72 hrs
Method: as §1

[26] = system: BT-549; conditions: BT-549 (Breast), 20 micromolar, 72 hrs
Method: as §1

[27] = system: NCI-H1770; conditions: NCI-H1770 (Lung), 20 micromolar, 72 hrs
Method: as §1

[28] = system: Bel-7402; conditions: Bel-7402 (Liver), 20 micromolar, 72 hrs
Method: as §1

[29] = system: HCC1599; conditions: HCC1599 (Breast), 20 micromolar, 72 hrs
Method: as §1

[30] = system: C8166; conditions: C8166 (Leukemia), 20 micromolar, 72 hrs
Method: as §1

[31] = system: T98G; conditions: T98G (Brain), 20 micromolar, 72 hrs
Method: as §1

[32] = system: HT-1197; conditions: HT-1197 (Urinary bladder), 20 micromolar, 72 hrs
Method: as §1

[33] = system: HCC1395; conditions: HCC1395 (Breast), 20 micromolar, 72 hrs
Method: as §1

[34] = system: ZR-75-30; conditions: ZR-75-30 (Breast), 20 micromolar, 72 hrs
Method: as §1

[35] = system: C3A; conditions: C3A (Liver), 20 micromolar, 72 hrs
Method: as §1

[36] = system: HCC1937; conditions: HCC1937 (Breast), 20 micromolar, 72 hrs
Method: as §1

Measured: Percent Inhibition

CC(C)=CCCC1(C)C=Cc2c(O)c3c(c(CC=C(C)C)c2O1)OC12C(=CC4CC1C(C)(C)OC2(CC=C(C)C(=O)O)C4=O)C3=O (mixture of isomers) [GB8]
98%: [23]
100%: [4] | [6] | [7] | [9] | [11] | [12] | [13] | [17] | [21] | [26] | [27] | [29] | [30] | [31] | [36]
99%: all other assays above

CC(C)=CCCC1(C)C=Cc2c(O)c3c(c(CC=C(C)C)c2O1)OC12C(=CC4CC1C(C)(C)OC2(CC=C(C)C(=O)O)C4=O)C3=O (mixture of isomers) [GB14]
99%: [34]
97%: [3] | [4] | [5] | [6] | [9] | [10] | [14] | [15] | [16] | [19] | [21] | [24] | [25] | [27] | [28] | [30]
98%: all other assays above

CC(C)=CCc1c2c(c3oc4c(O)c(O)ccc4c(=O)c3c1O)C=CC(C)(C)O2 [Compound C-6]
-10%: [14]
19%: [11]
-6%: [26]
13%: [25]
52%: [29]
10%: [19]
18%: [17]
-5%: [5]
11%: [12] | [31]
-13%: [1]
-21%: [4]
20%: [32]
12%: [10] | [30]
5%: [20] | [27] | [28]
9%: [6]
17%: [35]
3%: [8]
16%: [2]
-18%: [18]
-61%: [23]
6%: [13]
14%: [33]
1%: [9] | [16] | [21]
64%: [34]
21%: [3] | [36]
-8%: [15]
7%: all other assays above
